pIC50: −log10 of the molar value. Where only a bound is given, the exact number is not on record here.

Holding throughout (test): biochemical
One test has as its target T1, BMPR2 (Homo sapiens, UniProt Q13873).
T1 sequence (Q13873 1-1038): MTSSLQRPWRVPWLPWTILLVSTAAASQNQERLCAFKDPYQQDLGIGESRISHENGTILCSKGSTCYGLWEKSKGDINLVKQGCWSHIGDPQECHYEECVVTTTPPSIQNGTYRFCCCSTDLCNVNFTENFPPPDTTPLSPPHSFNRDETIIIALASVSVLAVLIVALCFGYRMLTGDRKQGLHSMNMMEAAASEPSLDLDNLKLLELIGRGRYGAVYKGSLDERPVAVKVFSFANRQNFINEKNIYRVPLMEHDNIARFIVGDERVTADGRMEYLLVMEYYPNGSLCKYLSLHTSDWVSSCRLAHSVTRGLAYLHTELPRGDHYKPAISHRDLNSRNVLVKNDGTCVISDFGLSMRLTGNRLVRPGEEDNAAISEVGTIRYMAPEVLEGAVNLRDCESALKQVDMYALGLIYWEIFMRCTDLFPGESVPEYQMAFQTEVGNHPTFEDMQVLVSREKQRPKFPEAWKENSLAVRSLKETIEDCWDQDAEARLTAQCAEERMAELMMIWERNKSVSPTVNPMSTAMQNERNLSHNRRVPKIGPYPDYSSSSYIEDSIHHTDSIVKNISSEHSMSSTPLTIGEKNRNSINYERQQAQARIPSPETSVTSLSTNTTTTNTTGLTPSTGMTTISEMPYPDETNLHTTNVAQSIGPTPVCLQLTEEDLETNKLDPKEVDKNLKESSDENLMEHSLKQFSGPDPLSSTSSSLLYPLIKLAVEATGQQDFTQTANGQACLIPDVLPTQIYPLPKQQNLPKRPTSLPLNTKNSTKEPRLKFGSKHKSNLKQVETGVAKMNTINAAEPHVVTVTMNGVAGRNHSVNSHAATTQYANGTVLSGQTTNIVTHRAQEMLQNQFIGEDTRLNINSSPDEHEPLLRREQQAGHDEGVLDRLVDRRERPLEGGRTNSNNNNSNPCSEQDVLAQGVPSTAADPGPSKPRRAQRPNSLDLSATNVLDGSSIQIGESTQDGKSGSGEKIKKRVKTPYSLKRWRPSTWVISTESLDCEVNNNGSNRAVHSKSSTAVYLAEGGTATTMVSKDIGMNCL
Set-up: SelectScreen LanthaScreen kinase binding assay, per cent tracer displacement, mean of two points. The settings on record: tracer displacement.

For a further test, the target named is KIT D816V (Homo sapiens, UniProt P10721, D816V). Set-up: SelectScreen LanthaScreen kinase binding assay, per cent tracer displacement, mean of two points. The note with it: tracer displacement.
Another test deals with T2, PI3KC2β (Homo sapiens, UniProt O00750).
T2 construct: gene PIK3C2B
Set-up: ADP-Glo lipid kinase assay with liver PI substrate, luminescence. The settings on record: read-out: PITCOIN3 (IC50).

Sequence of KIT D816V (P10721 whole entry D816V): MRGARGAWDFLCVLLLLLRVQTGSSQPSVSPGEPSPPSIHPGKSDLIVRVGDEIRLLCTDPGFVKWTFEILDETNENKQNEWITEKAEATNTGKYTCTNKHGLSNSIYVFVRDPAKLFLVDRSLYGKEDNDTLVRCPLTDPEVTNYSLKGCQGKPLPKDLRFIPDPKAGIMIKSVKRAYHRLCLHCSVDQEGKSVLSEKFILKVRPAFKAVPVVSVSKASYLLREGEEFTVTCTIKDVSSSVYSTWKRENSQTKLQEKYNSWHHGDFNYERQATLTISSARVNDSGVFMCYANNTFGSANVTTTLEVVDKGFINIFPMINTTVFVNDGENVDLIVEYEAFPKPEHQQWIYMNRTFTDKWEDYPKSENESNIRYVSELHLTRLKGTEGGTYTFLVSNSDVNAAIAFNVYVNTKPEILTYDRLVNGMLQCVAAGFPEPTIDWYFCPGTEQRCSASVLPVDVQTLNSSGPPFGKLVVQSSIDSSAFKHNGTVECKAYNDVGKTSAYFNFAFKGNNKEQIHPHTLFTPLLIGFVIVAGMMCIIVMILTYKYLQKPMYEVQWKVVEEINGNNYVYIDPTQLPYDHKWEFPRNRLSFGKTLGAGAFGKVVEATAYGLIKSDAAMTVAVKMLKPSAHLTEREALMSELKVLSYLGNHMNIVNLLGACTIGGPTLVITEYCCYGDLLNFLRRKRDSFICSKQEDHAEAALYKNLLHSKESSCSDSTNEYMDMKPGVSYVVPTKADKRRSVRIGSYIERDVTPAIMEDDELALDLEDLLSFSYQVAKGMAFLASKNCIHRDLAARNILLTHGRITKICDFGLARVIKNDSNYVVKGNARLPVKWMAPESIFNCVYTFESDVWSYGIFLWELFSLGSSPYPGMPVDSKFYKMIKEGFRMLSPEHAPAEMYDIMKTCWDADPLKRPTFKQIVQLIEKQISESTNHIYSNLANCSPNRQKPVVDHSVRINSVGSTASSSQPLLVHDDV
T2 sequence (O00750 whole entry): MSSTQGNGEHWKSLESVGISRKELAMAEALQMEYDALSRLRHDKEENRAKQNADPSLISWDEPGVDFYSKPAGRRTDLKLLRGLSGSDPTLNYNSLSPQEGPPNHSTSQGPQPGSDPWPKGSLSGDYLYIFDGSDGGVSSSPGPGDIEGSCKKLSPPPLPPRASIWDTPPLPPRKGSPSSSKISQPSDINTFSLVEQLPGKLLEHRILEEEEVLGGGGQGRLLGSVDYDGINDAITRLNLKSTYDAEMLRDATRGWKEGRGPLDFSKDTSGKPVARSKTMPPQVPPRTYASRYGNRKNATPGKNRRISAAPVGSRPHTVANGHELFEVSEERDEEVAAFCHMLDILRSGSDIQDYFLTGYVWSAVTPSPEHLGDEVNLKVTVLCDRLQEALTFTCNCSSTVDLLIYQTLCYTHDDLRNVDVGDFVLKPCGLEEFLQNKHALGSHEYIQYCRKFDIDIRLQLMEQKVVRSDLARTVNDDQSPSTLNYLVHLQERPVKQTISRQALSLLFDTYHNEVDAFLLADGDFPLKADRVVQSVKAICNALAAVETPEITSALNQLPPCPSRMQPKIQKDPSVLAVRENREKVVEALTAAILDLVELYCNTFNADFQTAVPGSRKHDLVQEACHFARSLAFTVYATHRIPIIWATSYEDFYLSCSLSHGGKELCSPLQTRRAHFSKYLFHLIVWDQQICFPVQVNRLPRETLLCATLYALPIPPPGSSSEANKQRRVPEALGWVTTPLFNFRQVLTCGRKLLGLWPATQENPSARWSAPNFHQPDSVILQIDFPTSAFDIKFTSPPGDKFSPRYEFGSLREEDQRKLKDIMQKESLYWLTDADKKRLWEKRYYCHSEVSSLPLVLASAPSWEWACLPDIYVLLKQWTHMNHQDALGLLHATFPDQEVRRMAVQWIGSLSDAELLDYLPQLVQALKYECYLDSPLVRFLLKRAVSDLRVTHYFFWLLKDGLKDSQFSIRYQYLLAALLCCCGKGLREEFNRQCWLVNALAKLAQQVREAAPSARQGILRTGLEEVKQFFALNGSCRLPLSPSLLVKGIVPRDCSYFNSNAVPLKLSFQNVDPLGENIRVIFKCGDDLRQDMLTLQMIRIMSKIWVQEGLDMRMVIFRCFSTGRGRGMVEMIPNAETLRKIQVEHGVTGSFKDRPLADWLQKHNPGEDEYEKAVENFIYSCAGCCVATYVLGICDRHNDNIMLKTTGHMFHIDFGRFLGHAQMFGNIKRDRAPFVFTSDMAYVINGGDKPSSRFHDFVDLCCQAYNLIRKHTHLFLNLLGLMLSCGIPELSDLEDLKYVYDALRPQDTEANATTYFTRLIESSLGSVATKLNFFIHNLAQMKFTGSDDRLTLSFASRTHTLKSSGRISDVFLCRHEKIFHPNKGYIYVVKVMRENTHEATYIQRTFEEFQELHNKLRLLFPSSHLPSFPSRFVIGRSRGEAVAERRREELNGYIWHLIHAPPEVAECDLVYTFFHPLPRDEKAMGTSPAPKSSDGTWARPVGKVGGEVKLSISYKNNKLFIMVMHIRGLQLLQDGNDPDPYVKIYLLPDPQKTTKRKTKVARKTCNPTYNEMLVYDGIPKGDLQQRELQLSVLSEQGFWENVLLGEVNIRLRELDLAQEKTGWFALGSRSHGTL

A word on the inhibition: it is the drop in the measured response relative to a control, in per cent. With `O=C(CSc1nc2nccnc2c(=O)n1CCc1ccccc1)Nc1nccs1` [compound 1, PITCOIN1], at BMPR2, the inhibition at 1 µM is -1.13%, the inhibition at 3 µM was 0.974% and the inhibition at 10 µM came out at 3.06%. In addition, at KIT D816V, the inhibition at 1 µM is -3.29%, the inhibition at 3 µM came to 2.7% and the inhibition at 10 µM was -1.13%.

What is called pIC50 is −log10 of the IC50, conventionally taken in molar units. For the molecule `CS(=O)(=O)Nc1cccc(-c2csc(NC(=O)CSc3nc4nccnc4c(=O)n3CCc3ccccc3)n2)c1` [compound 3, PITCOIN3], at BMPR2, the inhibition at 1 µM amounted to 11.6%, the inhibition at 3 µM was found to be 13.1% and the inhibition at 10 µM worked out at 17.3%. In addition, on KIT D816V, the inhibition at 1 µM is 6.33%, the inhibition at 3 µM is 6.29% and the inhibition at 10 µM was determined as 5.56%. Further, the pIC50 on PI3KC2β is less than 5.00.

Source of the values: paper PMC7613998, “Development of selective inhibitors of phosphatidylinositol 3-kinase C2α” (Nature Chemical Biology, 2022).
